This note sets out measurements from ChEMBL document CHEMBL1201862, “PubChem BioAssay data set” (2004).

Activity calls are given as the source filed them.

Experiment [1] addresses T1, 1-phosphatidylinositol 4,5-bisphosphate phosphodiesterase gamma-1 (Homo sapiens, UniProt P19174).
T1 sequence (P19174 whole entry): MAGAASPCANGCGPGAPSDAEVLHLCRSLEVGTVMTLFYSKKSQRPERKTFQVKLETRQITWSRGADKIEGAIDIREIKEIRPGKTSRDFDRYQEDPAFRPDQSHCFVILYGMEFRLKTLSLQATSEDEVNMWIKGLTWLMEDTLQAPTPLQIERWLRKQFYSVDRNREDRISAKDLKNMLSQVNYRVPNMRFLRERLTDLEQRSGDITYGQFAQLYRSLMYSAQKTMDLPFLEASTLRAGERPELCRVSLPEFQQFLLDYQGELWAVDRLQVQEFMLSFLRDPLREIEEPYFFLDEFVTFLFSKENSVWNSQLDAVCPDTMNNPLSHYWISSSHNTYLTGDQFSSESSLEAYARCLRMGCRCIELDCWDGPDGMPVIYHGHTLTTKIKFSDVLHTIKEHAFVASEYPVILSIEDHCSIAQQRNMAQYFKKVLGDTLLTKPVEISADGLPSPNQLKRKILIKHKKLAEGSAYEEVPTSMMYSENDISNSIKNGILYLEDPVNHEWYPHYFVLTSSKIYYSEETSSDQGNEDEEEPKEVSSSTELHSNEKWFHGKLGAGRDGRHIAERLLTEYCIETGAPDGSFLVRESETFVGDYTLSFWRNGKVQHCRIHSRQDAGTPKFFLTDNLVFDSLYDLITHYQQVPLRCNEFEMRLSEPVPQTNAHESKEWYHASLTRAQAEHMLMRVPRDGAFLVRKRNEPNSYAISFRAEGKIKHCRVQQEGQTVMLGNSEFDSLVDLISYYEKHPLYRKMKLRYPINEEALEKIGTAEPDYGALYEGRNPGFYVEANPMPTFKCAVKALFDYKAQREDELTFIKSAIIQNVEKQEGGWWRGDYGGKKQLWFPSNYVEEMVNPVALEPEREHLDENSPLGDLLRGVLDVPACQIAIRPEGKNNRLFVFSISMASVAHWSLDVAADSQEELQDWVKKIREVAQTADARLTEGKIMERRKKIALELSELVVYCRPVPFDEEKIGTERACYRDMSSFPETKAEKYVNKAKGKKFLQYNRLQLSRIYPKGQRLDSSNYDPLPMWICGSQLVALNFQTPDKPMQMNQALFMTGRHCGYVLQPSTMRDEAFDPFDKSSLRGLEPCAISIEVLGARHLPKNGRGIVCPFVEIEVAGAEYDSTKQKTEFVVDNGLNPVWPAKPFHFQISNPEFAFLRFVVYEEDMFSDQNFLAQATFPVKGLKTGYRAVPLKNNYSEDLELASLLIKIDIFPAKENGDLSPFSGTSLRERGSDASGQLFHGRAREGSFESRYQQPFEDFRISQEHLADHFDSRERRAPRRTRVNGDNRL
Nature of the experiment: Counterscreen for inhibitors of phospholipase C isozymes (PLC-B3): Fluorescence-based biochemical high throughput dose response assay to identify inhibitors of phospholipase C isozymes (PLC-gamma1). (In general: Counterscreens check selectivity or assay interference.)

The target of experiment [2] is T2, 1-phosphatidylinositol 4,5-bisphosphate phosphodiesterase beta-3 (Homo sapiens, UniProt Q01970).
T2 sequence (Q01970 whole entry): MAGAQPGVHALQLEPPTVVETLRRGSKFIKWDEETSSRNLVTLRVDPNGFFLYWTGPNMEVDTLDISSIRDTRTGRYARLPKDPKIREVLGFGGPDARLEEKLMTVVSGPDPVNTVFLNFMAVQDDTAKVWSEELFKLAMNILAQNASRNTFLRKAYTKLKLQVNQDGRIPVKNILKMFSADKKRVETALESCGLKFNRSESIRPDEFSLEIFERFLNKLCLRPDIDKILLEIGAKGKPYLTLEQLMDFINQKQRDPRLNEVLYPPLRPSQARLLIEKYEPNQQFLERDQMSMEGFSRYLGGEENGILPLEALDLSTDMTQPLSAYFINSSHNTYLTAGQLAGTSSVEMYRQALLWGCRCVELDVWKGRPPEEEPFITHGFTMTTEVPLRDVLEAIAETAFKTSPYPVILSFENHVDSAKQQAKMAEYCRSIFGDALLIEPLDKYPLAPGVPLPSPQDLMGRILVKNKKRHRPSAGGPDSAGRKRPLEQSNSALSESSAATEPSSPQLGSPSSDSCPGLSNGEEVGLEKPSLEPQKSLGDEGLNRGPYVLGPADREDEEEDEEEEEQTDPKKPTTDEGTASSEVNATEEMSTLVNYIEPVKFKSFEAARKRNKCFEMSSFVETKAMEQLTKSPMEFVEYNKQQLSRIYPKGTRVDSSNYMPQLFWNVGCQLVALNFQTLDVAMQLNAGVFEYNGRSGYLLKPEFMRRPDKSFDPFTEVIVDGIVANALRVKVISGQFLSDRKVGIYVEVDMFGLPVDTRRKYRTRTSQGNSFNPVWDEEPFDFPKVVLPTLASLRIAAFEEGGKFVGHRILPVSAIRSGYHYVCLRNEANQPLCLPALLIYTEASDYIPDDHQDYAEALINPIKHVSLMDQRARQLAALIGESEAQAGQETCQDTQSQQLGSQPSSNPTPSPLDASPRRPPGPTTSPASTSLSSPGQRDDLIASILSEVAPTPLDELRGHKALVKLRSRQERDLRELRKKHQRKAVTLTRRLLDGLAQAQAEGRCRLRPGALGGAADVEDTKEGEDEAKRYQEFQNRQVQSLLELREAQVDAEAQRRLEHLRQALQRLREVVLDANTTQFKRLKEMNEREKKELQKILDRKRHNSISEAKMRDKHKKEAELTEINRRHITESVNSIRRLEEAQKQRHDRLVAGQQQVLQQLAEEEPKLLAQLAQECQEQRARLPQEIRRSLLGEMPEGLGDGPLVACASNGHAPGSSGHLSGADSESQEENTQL
Nature of the experiment: Fluorescence-based biochemical high throughput dose response assay to identify inhibitors of phospholipase C isozymes (PLC-B3).

Experiment [3] addresses T3, Replicative DNA helicase DnaB (Mycobacterium tuberculosis, UniProt P9WMR3).
T3 sequence (P9WMR3 whole entry): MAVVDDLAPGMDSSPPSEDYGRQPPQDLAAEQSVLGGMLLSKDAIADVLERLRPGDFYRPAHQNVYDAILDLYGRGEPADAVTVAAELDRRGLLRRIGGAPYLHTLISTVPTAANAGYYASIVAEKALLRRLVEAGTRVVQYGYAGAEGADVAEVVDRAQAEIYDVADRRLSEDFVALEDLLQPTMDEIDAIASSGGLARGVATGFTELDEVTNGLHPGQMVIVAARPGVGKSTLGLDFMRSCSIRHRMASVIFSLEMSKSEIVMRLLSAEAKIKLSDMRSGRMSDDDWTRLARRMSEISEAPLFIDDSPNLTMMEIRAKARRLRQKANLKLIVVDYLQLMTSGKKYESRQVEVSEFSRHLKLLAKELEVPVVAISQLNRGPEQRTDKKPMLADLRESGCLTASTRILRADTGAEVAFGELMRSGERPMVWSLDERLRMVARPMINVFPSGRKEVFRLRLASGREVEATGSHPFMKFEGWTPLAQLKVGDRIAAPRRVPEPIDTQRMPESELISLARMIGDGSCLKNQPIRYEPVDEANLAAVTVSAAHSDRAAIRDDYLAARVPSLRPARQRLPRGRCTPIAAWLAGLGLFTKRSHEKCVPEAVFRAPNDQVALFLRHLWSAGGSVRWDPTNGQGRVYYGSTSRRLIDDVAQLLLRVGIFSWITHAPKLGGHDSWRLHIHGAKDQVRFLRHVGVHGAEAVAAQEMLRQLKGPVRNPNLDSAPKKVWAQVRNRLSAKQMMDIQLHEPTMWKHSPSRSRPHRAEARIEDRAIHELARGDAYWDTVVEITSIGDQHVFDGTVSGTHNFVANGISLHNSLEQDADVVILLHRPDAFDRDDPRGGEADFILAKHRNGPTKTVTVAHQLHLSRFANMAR
Nature of the experiment: DnaB intein splicing inhibitors, dose response, biochemical, cell-free fluorescence (AID 449749). Type of experiment: functional.

The target in a further experiment is T4, Protein RecA (Mycobacterium tuberculosis, UniProt P9WHJ3).
T4 sequence (P9WHJ3 whole entry): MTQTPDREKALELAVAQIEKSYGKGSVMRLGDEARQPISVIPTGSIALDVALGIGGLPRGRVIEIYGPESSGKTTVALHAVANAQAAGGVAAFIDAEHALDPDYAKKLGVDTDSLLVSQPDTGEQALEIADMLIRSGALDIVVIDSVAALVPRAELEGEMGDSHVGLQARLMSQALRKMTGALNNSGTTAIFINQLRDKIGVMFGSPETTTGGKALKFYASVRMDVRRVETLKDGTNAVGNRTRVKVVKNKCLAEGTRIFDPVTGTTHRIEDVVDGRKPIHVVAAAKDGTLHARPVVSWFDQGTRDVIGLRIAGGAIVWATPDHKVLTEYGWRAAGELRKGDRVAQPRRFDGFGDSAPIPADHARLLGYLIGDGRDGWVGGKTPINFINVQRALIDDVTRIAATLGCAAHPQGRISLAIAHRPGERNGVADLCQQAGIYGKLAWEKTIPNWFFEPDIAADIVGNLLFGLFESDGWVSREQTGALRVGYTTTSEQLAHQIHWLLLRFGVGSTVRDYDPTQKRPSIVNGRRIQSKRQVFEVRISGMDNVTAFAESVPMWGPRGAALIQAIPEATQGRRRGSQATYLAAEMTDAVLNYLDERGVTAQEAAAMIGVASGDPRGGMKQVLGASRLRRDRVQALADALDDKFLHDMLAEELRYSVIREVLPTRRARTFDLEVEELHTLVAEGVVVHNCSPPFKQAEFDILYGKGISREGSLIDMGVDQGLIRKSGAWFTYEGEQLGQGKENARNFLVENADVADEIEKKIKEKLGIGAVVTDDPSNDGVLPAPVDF
Nature of the experiment: Fluorescence Cell-Free Homogeneous Dose Retest to Identify Inhibitors of RecA-Intein Splicing Activity. [Related pubchem assays (depositor defined):AID2097, AID2223, AID489010, AID492950]. Format: functional.

A further experiment concerns the target Genome polyprotein (dengue virus type 2, UniProt P29990). Nature of the experiment: flavivirus cap methylation enzyme inhibition – biochemical, confirmation dose response, primary screen (AID 588689). Type of experiment: functional.
Experiment [4] deals with T5, Tyrosyl-DNA phosphodiesterase 2 (Homo sapiens, UniProt O95551).
T5 sequence (O95551 whole entry): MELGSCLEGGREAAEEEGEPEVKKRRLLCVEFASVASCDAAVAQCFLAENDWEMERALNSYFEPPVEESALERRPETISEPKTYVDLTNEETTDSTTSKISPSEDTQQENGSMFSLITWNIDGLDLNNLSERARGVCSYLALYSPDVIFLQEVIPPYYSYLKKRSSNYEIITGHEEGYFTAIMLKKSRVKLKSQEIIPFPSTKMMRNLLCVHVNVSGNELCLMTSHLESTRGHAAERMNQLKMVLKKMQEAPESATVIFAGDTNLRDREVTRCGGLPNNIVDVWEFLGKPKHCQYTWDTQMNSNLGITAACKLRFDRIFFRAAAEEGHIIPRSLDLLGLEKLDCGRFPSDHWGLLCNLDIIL
Nature of the experiment: potency against TDP2 phosphodiesterase activity – biochemical, epi absorbance, IC50, dose response (AID 743297).

The target of another experiment is T6, fMet-Leu-Phe receptor (Homo sapiens, UniProt P21462).
T6 sequence (P21462 whole entry): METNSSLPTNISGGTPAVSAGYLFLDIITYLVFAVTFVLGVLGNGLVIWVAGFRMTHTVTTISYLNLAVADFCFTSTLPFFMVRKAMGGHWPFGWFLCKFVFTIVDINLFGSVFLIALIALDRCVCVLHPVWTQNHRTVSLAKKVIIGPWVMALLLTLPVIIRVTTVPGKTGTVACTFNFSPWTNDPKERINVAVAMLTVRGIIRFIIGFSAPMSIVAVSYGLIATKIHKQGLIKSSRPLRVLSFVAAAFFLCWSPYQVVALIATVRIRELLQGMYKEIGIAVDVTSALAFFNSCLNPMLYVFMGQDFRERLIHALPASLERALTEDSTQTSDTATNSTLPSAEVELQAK
Nature of the experiment: formyl peptide receptor binders – dose response (AID 519). Format: functional.

Sequence of Genome polyprotein (P29990 2492-3391 limits assumed): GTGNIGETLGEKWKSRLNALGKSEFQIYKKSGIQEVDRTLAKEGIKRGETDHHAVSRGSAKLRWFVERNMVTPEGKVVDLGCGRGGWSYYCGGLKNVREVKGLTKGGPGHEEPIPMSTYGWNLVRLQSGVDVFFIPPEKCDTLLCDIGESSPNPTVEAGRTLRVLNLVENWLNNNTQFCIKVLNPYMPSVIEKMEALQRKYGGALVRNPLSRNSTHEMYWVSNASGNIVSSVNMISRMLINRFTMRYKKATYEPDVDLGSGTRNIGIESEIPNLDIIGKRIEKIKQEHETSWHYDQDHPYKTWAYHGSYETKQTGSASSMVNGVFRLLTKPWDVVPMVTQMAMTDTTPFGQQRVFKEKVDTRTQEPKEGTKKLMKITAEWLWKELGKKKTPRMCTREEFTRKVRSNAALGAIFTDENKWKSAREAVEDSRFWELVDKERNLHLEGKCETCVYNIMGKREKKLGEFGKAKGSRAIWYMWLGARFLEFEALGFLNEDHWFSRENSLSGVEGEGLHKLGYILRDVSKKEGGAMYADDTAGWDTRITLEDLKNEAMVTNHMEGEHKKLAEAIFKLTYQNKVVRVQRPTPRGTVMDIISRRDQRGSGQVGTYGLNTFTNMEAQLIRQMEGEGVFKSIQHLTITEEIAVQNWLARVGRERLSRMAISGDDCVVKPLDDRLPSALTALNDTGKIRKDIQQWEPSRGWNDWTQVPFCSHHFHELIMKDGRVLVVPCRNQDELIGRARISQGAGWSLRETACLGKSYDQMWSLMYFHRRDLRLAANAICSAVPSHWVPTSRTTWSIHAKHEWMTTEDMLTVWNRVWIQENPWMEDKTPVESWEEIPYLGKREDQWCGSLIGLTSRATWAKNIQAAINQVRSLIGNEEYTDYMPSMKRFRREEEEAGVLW

`Cc1cc(NC(=O)c2ccccc2)ncc1NC(=O)c1cccs1`: the IC50 in experiment [1] and in experiment [2] was > 122 µM (inactive) in each case.

For `COc1cccc(C(c2c(C)nn(-c3ccccc3)c2O)c2c(C)nn(-c3ccccc3)c2O)c1OC`, the AC50 – broadly, the concentration at which the activity in the assay is half-maximal – in experiment [3] is 1.25 µM (active). In addition, the EC50 (as a rule, the concentration that produces a half-maximal response) at Protein RecA is 0.81 µM (active). For the same compound, the half-inhibitory concentration (IC50) (as a rule, the midpoint of a concentration-inhibition curve) at Genome polyprotein is 61.1 µM (active); in experiment [4], 24.7 µM (inactive).

Turning to `COCCCN1C(=O)C(O)=C(C(=O)c2ccccc2)C1c1ccc2c(c1)OCO2` (stereo not given), on fMet-Leu-Phe receptor, the Ki (commonly the equilibrium dissociation constant of an inhibitor or competing ligand from its target) is 29.6 µM (inactive).

For `Cc1ccc(S(=O)(=O)Cc2nc(O)c3ccccc3n2)cc1`, the IC50 in experiment [1] and in experiment [2] was > 123 µM (inactive) in each case.

As to `Cc1oc2cc(O)cc(O)c2c(=O)c1-c1ccc2c(c1)OCCCO2`, the Ki on fMet-Leu-Phe receptor is > 66.7 µM (inactive).
